Experimental data: PubChem BioAssay AID192 (DTP/NCI, 2004)
Values joined by “and” are separate entries in the source; they are usually repeats but may differ in a detail not shown here. Equal values may be shown once. Toxic doses and inconclusive results are not listed.

System: BDF1 mice, B16 melanoma ip, median survival T/C
Assay: NCI In Vivo Anticancer Drug Screen. Data for tumor model B16 Melanoma (intraperitoneal) in B6D2F1 (BDF1) mice
Conditions: endpoint: median survival time, higher = longer survival
How it was run: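 Values are ratios of treated (T) to vehicle-control (C) measurements of survival or tumor size in tumor-bearing mice.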

[1] = dose: 20.0 mg/kg/injection, schedule: Q01DX009 (ip), vehicle: saline with Tween-80
[2] = dose: 25.0 mg/kg/injection, schedule: Q01DX009 (ip), vehicle: saline
[3] = dose: 50.0 mg/kg/injection, schedule: Q01DX009 (ip), vehicle: saline
[4] = dose: 100.0 mg/kg/injection, schedule: Q01DX009 (ip), vehicle: saline with Tween-80
[5] = dose: 100.0 mg/kg/injection, schedule: Q01DX009 (ip), vehicle: saline
[6] = dose: 200.0 mg/kg/injection, schedule: Q01DX009 (ip), vehicle: saline with Tween-80
[7] = dose: 12.5 mg/kg/injection, schedule: Q01DX009 (ip), vehicle: saline with Tween-80
[8] = dose: 25.0 mg/kg/injection, schedule: Q01DX009 (ip), vehicle: saline with Tween-80
[9] = dose: 50.0 mg/kg/injection, schedule: Q01DX009 (ip), vehicle: saline with Tween-80

OC(CBr)C(O)C(O)C(O)CBr (stereo not drawn)
T/C (dose: 12.5 mg/kg/injection, schedule: Q01DX009 (ip), vehicle: saline): 110 % of control | T/C [1]: 107 % of control | T/C [2]: 107 % of control | T/C (dose: 25.9 mg/kg/injection, schedule: Q01DX009 (ip), vehicle: saline with Tween-80): 109 % of control | T/C (dose: 40.0 mg/kg/injection, schedule: Q01DX009 (ip), vehicle: saline with Tween-80): 100 % of control | T/C (dose: 43.2 mg/kg/injection, schedule: Q01DX009 (ip), vehicle: saline with Tween-80): 105 % of control | T/C [3]: 120 % of control and 107 % of control | T/C (dose: 72.0 mg/kg/injection, schedule: Q01DX009 (ip), vehicle: saline with Tween-80): 116 % of control | T/C (dose: 80.0 mg/kg/injection, schedule: Q01DX009 (ip), vehicle: saline with Tween-80): 108 % of control | T/C [4]: 103 % of control and 120 % of control | T/C [5]: 107 % of control | T/C (dose: 120.0 mg/kg/injection, schedule: Q01DX009 (ip), vehicle: saline with Tween-80): 101 % of control | T/C (dose: 160.0 mg/kg/injection, schedule: Q01DX009 (ip), vehicle: saline with Tween-80): 115 % of control | T/C [6]: 113 % of control and 114 % of control | T/C (dose: 200.0 mg/kg/injection, schedule: Q01DX009 (ip), vehicle: saline): 117 % of control and 110 % of control | T/C (dose: 300.0 mg/kg/injection, schedule: Q01DX009 (ip), vehicle: saline with Tween-80): 82 % of control | T/C (dose: 555.8 mg/kg/injection, schedule: Q01DX009 (ip), vehicle: saline with Tween-80): 55 % of control | T/C (dose: 800.0 mg/kg/injection, schedule: Q01DX009 (ip), vehicle: saline with Tween-80): 112 % of control

OC(Cc1cnc2ccccc2n1)(C(F)(F)F)C(F)(F)F
T/C (dose: 100.0 mg/kg/injection, schedule: Q04DX003 (ip), vehicle: saline with Tween-80): 105 % of control | T/C (dose: 200.0 mg/kg/injection, schedule: Q04DX003 (ip), vehicle: saline with Tween-80): 105 % of control | T/C (dose: 400.0 mg/kg/injection, schedule: Q04DX003 (ip), vehicle: saline with Tween-80): 102 % of control

C/C=C1/C[C@@H](C)[C@@](C)(O)C(=O)OCC2=CCN3CC[C@@H](OC1=O)[C@@H]23
T/C (dose: 10.0 mg/kg/injection, schedule: Q01DX009 (ip), vehicle: saline): 110 % of control | T/C (dose: 11.3 mg/kg/injection, schedule: Q01DX009 (ip), vehicle: saline): 111 % of control | T/C (dose: 20.0 mg/kg/injection, schedule: Q01DX009 (ip), vehicle: saline): 113 % of control | T/C (dose: 22.5 mg/kg/injection, schedule: Q01DX009 (ip), vehicle: saline): 285 % of control | T/C (dose: 40.0 mg/kg/injection, schedule: Q01DX009 (ip), vehicle: saline): 108 % of control | T/C (dose: 45.0 mg/kg/injection, schedule: Q01DX009 (ip), vehicle: saline): 102 % of control | T/C (dose: 80.0 mg/kg/injection, schedule: Q01DX009 (ip), vehicle: saline): 108 % of control | T/C (dose: 90.0 mg/kg/injection, schedule: Q01DX009 (ip), vehicle: saline): 88 % of control

CCCCOc1ccc(NC(=O)CCl)cc1
T/C [7]: 99 % of control | T/C [8]: 100 % of control | T/C [9]: 99 % of control

CC(C)c1ccc(C(c2c(O)c3ccccc3oc2=O)c2c(O)c3ccccc3oc2=O)cc1
T/C (dose: 12.5 mg/kg/injection, schedule: Q01DX009 (ip), vehicle: Klucel (hydroxypropylcellulose) (HPC)): 99 % of control | T/C (dose: 25.0 mg/kg/injection, schedule: Q01DX009 (ip), vehicle: Klucel (hydroxypropylcellulose) (HPC)): 97 % of control | T/C (dose: 50.0 mg/kg/injection, schedule: Q01DX009 (ip), vehicle: Klucel (hydroxypropylcellulose) (HPC)): 107 % of control

COc1cccc(O)c1
T/C [8]: 97 % of control | T/C [9]: 96 % of control | T/C [4]: 91 % of control | T/C [6]: 86 % of control

CC(=O)O[C@H]1C(=O)[C@@]2(C)[C@H]([C@H](OC(=O)c3ccccc3)[C@]3(O)C[C@H](OC(=O)[C@H](O)[C@@H](NC(=O)c4ccccc4)c4ccccc4)C(C)=C1C3(C)C)[C@]1(OC(C)=O)CO[C@@H]1C[C@@H]2O
T/C (dose: 0.66 mg/kg/injection, schedule: Q01DX005 (iv), vehicle: other): 100 % of control | T/C (dose: 0.66 mg/kg/injection, schedule: Q08HX018 (ip), vehicle: Klucel (hydroxypropylcellulose) (HPC)): 160 % of control | T/C (dose: 0.66 mg/kg/injection, schedule: Q08HX018 (ip), vehicle: other): 110 % of control | T/C (dose: 0.98 mg/kg/injection, schedule: Q08HX018 (ip), vehicle: Klucel (hydroxypropylcellulose) (HPC)): 183 % of control | T/C (dose: 1.25 mg/kg/injection, schedule: Q01DX009 (ip), vehicle: Klucel (hydroxypropylcellulose) (HPC)): 153 % of control and 181 % of control | T/C (dose: 1.25 mg/kg/injection, schedule: Q01DX009 (oral), vehicle: Klucel (hydroxypropylcellulose) (HPC)): 91 % of control | T/C (dose: 1.32 mg/kg/injection, schedule: Q01DX009 (ip), vehicle: Klucel (hydroxypropylcellulose) (HPC)): 164 % of control | T/C (dose: 1.48 mg/kg/injection, schedule: Q01DX005 (iv), vehicle: other): 105 % of control | T/C (dose: 1.48 mg/kg/injection, schedule: Q08HX018 (ip), vehicle: Klucel (hydroxypropylcellulose) (HPC)): 207 % of control | T/C (dose: 1.48 mg/kg/injection, schedule: Q08HX018 (ip), vehicle: other): 174 % of control | T/C (dose: 1.98 mg/kg/injection, schedule: Q01DX009 (ip), vehicle: Klucel (hydroxypropylcellulose) (HPC)): 183 % of control and 200 % of control | T/C (dose: 2.22 mg/kg/injection, schedule: Q08HX018 (ip), vehicle: Klucel (hydroxypropylcellulose) (HPC)): 187 % of control | T/C (dose: 2.22 mg/kg/injection, schedule: Q08HX018 (ip), vehicle: other): 193 % of control | T/C (dose: 2.5 mg/kg/injection, schedule: Q01DX009 (ip), vehicle: other): 106 % of control | T/C (dose: 2.5 mg/kg/injection, schedule: Q01DX009 (oral), vehicle: Klucel (hydroxypropylcellulose) (HPC)): 116 % of control | T/C (dose: 2.96 mg/kg/injection, schedule: Q01DX009 (ip), vehicle: Klucel (hydroxypropylcellulose) (HPC)): 206 % of control and 217 % of control | T/C (dose: 3.33 mg/kg/injection, schedule: Q01DX005 (iv), vehicle: other): 95 % of control | T/C (dose: 3.33 mg/kg/injection, schedule: Q08HX018 (ip), vehicle: Klucel (hydroxypropylcellulose) (HPC)): 198 % of control | T/C (dose: 4.44 mg/kg/injection, schedule: Q01DX009 (ip), vehicle: Klucel (hydroxypropylcellulose) (HPC)): 194 % of control and 231 % of control | T/C (dose: 5.0 mg/kg/injection, schedule: Q08HX018 (ip), vehicle: Klucel (hydroxypropylcellulose) (HPC)): 240 % of control | T/C (dose: 5.0 mg/kg/injection, schedule: Q08HX018 (ip), vehicle: other): 150 % of control and 208 % of control | T/C (dose: 7.5 mg/kg/injection, schedule: Q01DX005 (iv), vehicle: other): 100 % of control | T/C (dose: 7.5 mg/kg/injection, schedule: Q08HX018 (ip), vehicle: Klucel (hydroxypropylcellulose) (HPC)): 122 % of control | T/C (dose: 11.2 mg/kg/injection, schedule: Q01DX005 (iv), vehicle: other): 108 % of control | T/C (dose: 20.0 mg/kg/injection, schedule: Q01DX009 (oral), vehicle: Klucel (hydroxypropylcellulose) (HPC)): 108 % of control | T/C (dose: 40.0 mg/kg/injection, schedule: Q01DX009 (oral), vehicle: Klucel (hydroxypropylcellulose) (HPC)): 106 % of control

C[CH2][Pb]([CH2]C)([CH2]C)[O][As](=O)(O)c1ccc(N)cc1
T/C (dose: 1.5 mg/kg/injection, schedule: Q01DX009 (ip), vehicle: saline): 98 % of control | T/C (dose: 3.0 mg/kg/injection, schedule: Q01DX009 (ip), vehicle: saline): 96 % of control

C[N+](C)(C)CC(=O)[O-]
T/C [3]: 108 % of control | T/C [5]: 101 % of control

C=CCc1ccc(C)c(C)c1O
T/C (dose: 100.0 mg/kg/injection, schedule: Q04DX003 (sc), vehicle: olive oil, sesame oil, peanut oil): 91 % of control

CCC(C)(O)CCc1ccccc1 (stereo not drawn)
T/C (dose: 100.0 mg/kg/injection, schedule: Q01DX009 (ip), vehicle: Klucel (hydroxypropylcellulose) (HPC)): 113 % of control | T/C (dose: 200.0 mg/kg/injection, schedule: Q01DX009 (ip), vehicle: Klucel (hydroxypropylcellulose) (HPC)): 113 % of control | T/C (dose: 400.0 mg/kg/injection, schedule: Q01DX009 (ip), vehicle: Klucel (hydroxypropylcellulose) (HPC)): 100 % of control

COc1ccc(N=O)c(O)c1
T/C (dose: 6.25 mg/kg/injection, schedule: Q01DX009 (ip), vehicle: saline with Tween-80): 97 % of control | T/C [7]: 97 % of control | T/C [8]: 90 % of control | T/C [2]: 197 % of control | T/C [9]: 109 % of control | T/C [3]: 95 % of control | T/C [5]: 90 % of control

CC(C)=CCOc1ccc2ccc(=O)oc2c1
T/C (dose: 5.0 mg/kg/injection, schedule: Q01DX009 (ip), vehicle: saline with Tween-80): 108 % of control | T/C (dose: 10.0 mg/kg/injection, schedule: Q01DX009 (ip), vehicle: saline with Tween-80): 105 % of control | T/C [1]: 99 % of control
